Our source for the IC50 values is EP1207159A1, “Aromaheterocyclic derivatives as dopamine D4 receptor antagonists” (TAISHO PHARMACEUTICAL CO. LTD, priority 1993, dated 1999).

pIC50: −log10 of the molar value. Counter-ions that a name gives are not always drawn.

By pIC50 is commonly meant the negative decadic logarithm of the IC50, by convention in mol/L. The low end stands for a high IC50, the high end for a low IC50.

One test deals with T1, Dopamine D2 Receptor (Rattus norvegicus, UniProt P61169).
T1 construct: Rat striatum was homogenized in 50 mM Tris-hydrochloric acid buffer (pH 7.4), centrifuged at 48,000 × g; from tissue; host or cells: rat striatum membrane
T1 sequence (P61169 whole entry): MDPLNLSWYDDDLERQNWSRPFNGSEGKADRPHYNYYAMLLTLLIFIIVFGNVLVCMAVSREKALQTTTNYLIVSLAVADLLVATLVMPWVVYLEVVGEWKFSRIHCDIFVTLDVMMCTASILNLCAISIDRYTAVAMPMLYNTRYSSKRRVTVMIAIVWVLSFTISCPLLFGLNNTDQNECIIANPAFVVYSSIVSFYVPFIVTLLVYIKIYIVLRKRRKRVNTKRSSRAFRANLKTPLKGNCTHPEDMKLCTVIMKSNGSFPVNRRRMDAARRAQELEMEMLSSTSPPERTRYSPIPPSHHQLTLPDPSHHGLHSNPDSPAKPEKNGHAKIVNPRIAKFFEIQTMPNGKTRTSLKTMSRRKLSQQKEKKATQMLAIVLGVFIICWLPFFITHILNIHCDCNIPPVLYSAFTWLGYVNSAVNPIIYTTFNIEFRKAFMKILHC
The test can be described thus: Dopamine D2 receptor binding assay ([3H]raclopride, rat striatum membrane). The note with it: 50% inhibition of [3H]raclopride (1 nM) binding, 25°C, an hour. The procedure:
Rat striatum membrane was used as a receptor preparation.
[^3H]raclopride was used as [^3H]-labeled ligand.
A binding reaction using the [^3H]-labeled ligand was carried out according to the following method as described in Mol. J. Pharmacol., 43, 749(1993).
Preparation of Receptor Preparation: Rat striatum was homogenized in 50 mM Tris-hydrochloric acid buffer (pH 7.4), centrifuged at 48,000 × g, and the precipitate was washed once with a Tris-hydrochloric acid buffer. The precipitate was suspended in 50 mM Tris-hydrochloric acid buffer (pH 7.4) containing 120 mM NaCl, 1.5 mM KCl, 2 mM CaCl2 and 1 mM MgCl2 to give a membrane preparation.
Dopamine D2 Receptor Binding Assay: The membrane preparation (0.5 mg of protein/ml), [^3H]raclopride (1 nM) and each test drug were reacted at 25°C for an hour.
After completion of the reaction, the reaction solution was filtered by suction through a glass filter (GF/B), and the radioactivity on the filter was determined by a liquid scintillation spectrometer.
The binding under the reaction in the presence of 10 µM haloperidol was defined as non-specific binding of [^3H]raclopride, and the difference between total binding and non-specific binding was defined as specific binding. […]

The next test addresses T2, human D4.2 receptor (Homo sapiens, UniProt P21917, DEL265-296).
T2 construct: expressed in transfected cells; host or cells: CHO cells (membranes)
T2 sequence (P21917 with tags, fused parts or gaps DEL265-296): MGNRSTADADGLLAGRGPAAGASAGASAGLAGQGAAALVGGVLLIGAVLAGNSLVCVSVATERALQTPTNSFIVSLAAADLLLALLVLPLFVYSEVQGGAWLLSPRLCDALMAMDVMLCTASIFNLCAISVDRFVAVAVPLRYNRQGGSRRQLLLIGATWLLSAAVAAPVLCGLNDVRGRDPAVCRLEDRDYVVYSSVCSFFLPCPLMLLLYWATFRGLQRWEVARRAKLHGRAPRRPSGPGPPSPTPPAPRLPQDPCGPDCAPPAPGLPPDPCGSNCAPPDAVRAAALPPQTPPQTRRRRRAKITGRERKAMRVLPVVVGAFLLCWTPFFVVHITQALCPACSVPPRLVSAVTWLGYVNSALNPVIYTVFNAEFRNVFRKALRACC
The test is described as follows: Dopamine D4 receptor binding assay ([3H]spiperone, CHO cell membranes). The note with it: 50% inhibition of [3H]spiperone binding; CHO cell membranes expressing human D4.2 receptor; 27°C, 2 hours. As to the method: Chinese hamster ovarium (CHO) cell membranes wherein human D4.2 receptor was expressed were used as a receptor preparation.
[^3H]spiperone was used as [^3H]-labeled ligand.
A binding reaction using the [^3H]-labeled ligand was carried out according to the following method as described in Eur. J. Pharmacol., 233, 173(1993).
Dopamine D4.2 Receptor Binding Assay: The CHO cell membranes wherein human D4.2 receptor was expressed, [^3H]spiperone ([…]) and each test drug were reacted in 50 mM Tris-hydrochloric acid buffer (pH 7.4) containing 5 mM EDTA, 1.5 mM CaCl2, 5 mM KCl and 120 mM NaCl at 27°C for 2 hours.
After completion of the reaction, the reaction solution was filtered by suction through a glass filter (GF/B), and the radioactivity on the filter was measured by a liquid scintillation spectrometer.
The binding under the reaction in the presence of 10 µM haloperidol was defined as non-specific binding of [^3H]spiperone, and the difference between the total binding and the non-specific binding was defined as specific binding.

As to `Fc1ccc(-c2ncncc2CCN2CCC(=Cc3cccc(F)c3)CC2)cc1` [Compound A-11], the values for the pIC50 at Dopamine D2 Receptor and on human D4.2 receptor were 6.28 and 8.34, respectively.

For `Fc1ccc(C=C2CCN(CCc3cn[nH]c3-c3ccccc3)CC2)cc1` [Compound A-05], the pIC50 on Dopamine D2 Receptor is 7.05; at human D4.2 receptor it was 8.95.

Take `CSc1ncc(CCN2CCC(=Cc3ccccc3F)CC2)c(-c2ccc(F)cc2)n1` [Compound A-14, 4-(4-fluorophenyl)-5-[2-[4-(2-fluorobenzylidene)piperidin-1-yl]ethyl]-2-methylthiopyrimidine dihydrochloride]: the pIC50 was 6.83 at Dopamine D2 Receptor and 7.90 on human D4.2 receptor.
